The results in this text go back to patent US5112519A, “Process for production of biodegradable surfactants and compositions thereof” (Mobil Oil Corporation, priority 1989, dated 1992).

A short description of assay [1]: Soil removal, phosphorous built industrial liquid laundry detergent, sebum/dust. Conditions: 130° F. An excerpt: (§1) In contrast, the three industrial detergents contained a high performance builder package, and dodecylbenzenesulfonic acid sodium salt. Two of the three also contain an AE, either tridecanol-9-mole-ethoxylate or C12-15 -alcohol-9 mole-ethoxylate. Many commercial detergents use combinations of LABS and AE's to balance performance and cost. LABS remove particulates well and lower overall surfactant cost while AE's effectively remove oily soils. The surfactant concentrations in all three are equal (i.e., the detergent without AE had more LABS) excepting the detergent using Mobil's AE. Its concentration is not increased to offset a contaminant, 7 wt % polyethylene glycol. The builder in all three detergents contained tetrapotassium pyrophosphate, sodium metasilicate, potassium hydroxide, and carboxymethylcellulose.
(§2) Testing Methods. This study uses two artificial soils on three test fabrics. Carbon black in an oil matrix simulates particulate soil, and sebum/dust simulates oily soil. Test Fabrics Inc. (Middlesex, N.J.) prints these soils on 100% cotton, 65/35 polyester/cotton with permanent press finish, and 100% polyester fabrics.
(§3) U.S. Testing Company did the fabric washing and drying under carefully controlled conditions. A Terg-O-Tometer washes using a 15 minute wash time. Conditions are 100 rpm agitation speed, 130° F. for the industrial detergents and 100° F. for the household detergents. They made wash and rinse water to 150 ppm hardness (U.S. national average), and washes six 3×4 inch test swatches per liter of solution. They rinse each load twice for five minutes. After washing and rinsing, the swatches are dried in an electric dryer, and ironed with a warm iron to remove wrinkles. All samples are run in triplicate.
(§4) White light reflectance, taken before and after washing, measures soil removal. A green filter cut out the effect of artificial brighteners. They measure soil redoposition by taking reflectance readings of fabric margins (areas not printed with soil) before and after washing. […]

Assay [2] in a line: Soil removal, unbuilt household liquid laundry detergent, sebum/dust. As to conditions: 100° F.
Description: (§5) Applicants blend three unbuilt household detergents differing only in the surfactant. Either Mobil's tridecanol-9 mole-ethoxylate, Shell's C12-15 -alcohol-9 mole-ethoxylate, or Vista's dodecylbenzenesulfonic acid sodium salt are used. All contain triethanolamine to make the wash liquor basic. This type formulation magnifies surfactant differences because it lacks a builder to extend the surfactant and soften hard water.
as §2, §3
(§6) White light reflectance, taken before and after washing, measures soil removal. A green filter cut out the effect of artificial brighteners. They measure soil redoposition by taking reflectance readings of fabric margins (areas not printed with soil) before and after washing. […] However, the reflectance technique more closely measures soil removal from the fabric surface, what the consumer sees.

Assay [3] in a line: Soil removal, unbuilt household liquid laundry detergent, carbon black/oil. Conditions: 100° F.
Description: as §5, §2, §3, §6

A short description of assay [4]: Soil removal, phosphorous built industrial liquid laundry detergent, carbon black/oil. As to conditions: 130° F.
Description: as §1, §2, §3, §4

Consider “dodecylbenzenesulfonic acid sodium salt [Vista LABS]”, for which the “Percent Soil Removal” value came out at 60% in assay [1] (Cotton); 39% in assay [1] (Polyester); 82% in assay [1] (Polyester/Cotton); 36% in assay [2] (Cotton); 19% in assay [2] (Polyester); 45% in assay [2] (Polyester/Cotton). Further, the “Percent Soil Removal” value worked out at 36% in assay [3] (Cotton); 40% in assay [3] (Polyester); 31% in assay [3] (Polyester/Cotton); 52% in assay [4] (Cotton); 29% in assay [4] (Polyester); 34% in assay [4] (Polyester/Cotton).
